In one series the target is T1, aldose reductase (Homo sapiens, UniProt P15121).
T1 construct: purchased Biovision
Nature of the series: Aldose Reductase Inhibitor Screening Kit (NADPH absorbance at 340 nm). The series is classed as biochemical. The conditions noted are these: in vitro; for IC50: mean ± SEM of two replicates, read-out: Aldose reductase inhibition IC50 (converted). The method, then:
Determination of the aldose reductase inhibitory effectiveness of the investigated samples was performed kinetically using the Aldose Reductase Inhibitor Screening Kit (Biovision, Milpitas, CA, USA), according to the manufacturer׳s protocol. The decrease in the absorption of NADPH at 340 nm was measured in a mixture containing NADPH, the enzyme and its substrate, DL-glyceraldeyde in addition to test samples [31]. […] A 90 μL of freshly prepared Aldose Reductase Solution was then added and the plate was incubated protected from light at 37 °C for 15–20 min. After incubation, 40 μL enzyme substrate in assay buffer was added and the absorbance was measured at 340 nm kinetically for 60–90 min at 37 °C. A background control free from the enzyme was run and subtracted from the readings. The IC50 was calculated and presented for the samples and the standard.

Series [1] addresses T2, Dipeptidyl peptidase IV (DPPIV) (Homo sapiens, UniProt P27487).
T2 construct: purchased Abnova
Nature of the series: DPPIV Inhibitor Screening Kit (fluorescence). It counts as biochemical. As to conditions: in vitro, mean ± SEM of two replicates; read-out: DPPIV inhibition IC50 (converted). The text has this:
The DPPIV Inhibitor Screening Kit (Abnova, Taipei, Taiwan) was used in accordance to the manufacturer׳s protocol.

Another series deals with liver (HepG2) carcinoma. As to conditions: cited from earlier work.
Series [2] is described as follows: DPPH radical scavenging assay. The conditions noted are these: 30 min, room temperature, 517 nm. The method, then: The free radical scavenging capacity of the parent extract of C. droserifolia together with the isolated compounds was estimated using 2,2-diphenyl-1-picrylhydrazil (DPPH) as described previously. In brief, 240 µL of 0.004% DPPH in methanol was added to 8 µL of the parent extract and the isolated compounds at different concentrations: (2, 4, 12, 16 µg/mL) and (0.5, 1, 3, 4 µg/mL), respectively. The reaction mixture was mixed and incubated in dark for 30 min at room temperature. The absorbance was then measured at 517 nm against blank that was done using water instead of the plant extract. Ascorbic acid was used as the antioxidant standard and the IC50 value for samples and standard was determined.
In general terms: DPPH is a stable violet radical that fades when it is reduced.

Another series has as its system breast (MCF7) carcinoma. As to conditions: cited from earlier work.
Series [3] in a line: Ferric reducing antioxidant power (FRAP) assay. As to conditions: expressed in µM FeCl2; isolated compounds at 200 µg/mL. The method, then:
The antioxidant potential of the extract and the isolated compounds was assessed according to the assay originally designed by Benzie and Strain (1996) using the DetectX® Ferric Reducing Antioxidant Power (FRAP™) Detection Kit by Arbor assays, Ann Arbor, USA. In the provided plate, 75 µL of the prepared FRAP Color Solution was mixed with 20 µL of either the aqueous extract (400 µg/mL), the isolated compounds (200 µg/mL), different concentrations of the standard ferrous chloride or ascorbic acid positive control. The mixture was incubated for 30 min at room temperature and the produced blue colored product was read at 560 nm. The FRAP values were calculated and expressed in µM FeCl2.

Series [4] has as its target T3, α-amylase from porcine pancreas (Sus scrofa, UniProt P00690).
T3 construct: purchased Sigma Aldrich
T3 sequence (P00690 16-511): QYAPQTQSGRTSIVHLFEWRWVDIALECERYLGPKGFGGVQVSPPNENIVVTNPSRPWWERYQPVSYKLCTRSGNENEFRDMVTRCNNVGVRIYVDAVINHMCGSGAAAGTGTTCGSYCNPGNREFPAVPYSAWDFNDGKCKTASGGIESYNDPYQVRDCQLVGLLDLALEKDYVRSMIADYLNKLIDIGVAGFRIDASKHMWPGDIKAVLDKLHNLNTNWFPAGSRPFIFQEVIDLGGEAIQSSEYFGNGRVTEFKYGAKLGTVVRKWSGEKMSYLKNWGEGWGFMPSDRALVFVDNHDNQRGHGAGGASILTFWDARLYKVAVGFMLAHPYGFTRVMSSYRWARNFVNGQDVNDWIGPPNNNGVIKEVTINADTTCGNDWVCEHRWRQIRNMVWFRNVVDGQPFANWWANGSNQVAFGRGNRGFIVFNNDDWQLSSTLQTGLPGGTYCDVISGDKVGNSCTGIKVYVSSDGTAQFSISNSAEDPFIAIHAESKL
Nature of the series: α-amylase inhibition assay (CNPG3 substrate, kinetic). It counts as biochemical. As to conditions: in vitro, pH 6.9, 37 °C. The protocol: (§1) Alpha-glucosidase enzyme from Saccharomyces cerevisiae, α-amylase from porcine pancreas and 2-chloro-4-nitrophenyl-α-D-maltotrioside (CNPG3) were purchased from Sigma Aldrich. All other chemicals were purchased from UFC Biotechnology. A microplate reader (Anthos Zenyth-200RT, Cambridge, UK) was used for the spectrophotometric measurements. A Bruker NMR Spectrometer (Bruker, Yokohama, Japan) used for ^1H-NMR (400 MHZ) and ^13C-NMR (100 MHz) analysis. Spectra were recorded in CD3OD or DMSO-d6 using tetramethylsilane (Sigma-Aldrich, St. Louis, MO, USA) as an internal standard, and chemical shift values were expressed in δ ppm.
A pre-incubation mixture was prepared which contained 40 mM phosphate buffer (pH 6.9) together with different concentrations (10, 50, 100, 200 µg/mL) and (5, 20, 50, 100 µg/mL) for the parent extract and the isolated compounds, respectively. […] Then, 2-chloro-4-nitrophenyl maltotrioside (CNPG3) substrate was added where the final concentration was 0.9 µmole/mL. […] A control which was devoid of the test samples was also run in parallel.

The target in series [5] is Alpha-glucosidase enzyme from Saccharomyces cerevisiae. Nature of the series: α-glucosidase inhibition assay (PNP-G substrate). It counts as biochemical. As to conditions: in vitro, pH 6.9, 37 °C. The protocol:
as §1
The tested samples were added to a reaction mixture in a 96-well microplate containing 20 µL of the phosphate buffer and 20 µL of 5 mM p-nitrophenyl α -D-glucopyranoside (PNP-G) in the buffer. […] The IC50 for test compounds as well as the standard was calculated and presented.

In another series the test system is colon (HCT116) carcinoma. The conditions noted are these: cited from earlier work.
Series [6] has as its system cultured skeletal muscle cells and adipocytes. Set-up: method as in PMID 21890334. The conditions noted are these: in vitro; cited from earlier work.

T2 sequence (P27487 whole entry, species assumed): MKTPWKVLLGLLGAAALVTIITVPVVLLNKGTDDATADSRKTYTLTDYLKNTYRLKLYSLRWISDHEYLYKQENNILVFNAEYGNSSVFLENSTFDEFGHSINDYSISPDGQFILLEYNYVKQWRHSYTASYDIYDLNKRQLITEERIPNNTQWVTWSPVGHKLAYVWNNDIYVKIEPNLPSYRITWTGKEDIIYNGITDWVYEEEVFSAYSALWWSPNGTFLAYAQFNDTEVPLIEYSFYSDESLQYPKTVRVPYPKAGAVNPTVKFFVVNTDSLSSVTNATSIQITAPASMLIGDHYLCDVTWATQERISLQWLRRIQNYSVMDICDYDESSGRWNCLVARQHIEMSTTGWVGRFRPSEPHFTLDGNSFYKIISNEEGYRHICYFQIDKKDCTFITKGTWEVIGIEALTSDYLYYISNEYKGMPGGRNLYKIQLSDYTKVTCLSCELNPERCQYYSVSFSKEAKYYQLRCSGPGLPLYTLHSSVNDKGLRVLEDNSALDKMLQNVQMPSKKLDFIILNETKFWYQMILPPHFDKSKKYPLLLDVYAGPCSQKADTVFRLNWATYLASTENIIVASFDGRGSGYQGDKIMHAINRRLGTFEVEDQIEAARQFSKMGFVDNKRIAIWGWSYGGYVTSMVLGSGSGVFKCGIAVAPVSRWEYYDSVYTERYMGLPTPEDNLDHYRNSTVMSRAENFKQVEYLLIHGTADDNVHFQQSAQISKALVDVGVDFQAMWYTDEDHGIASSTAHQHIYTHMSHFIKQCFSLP

In general, IC50 refers to the point on the concentration scale where inhibition reaches its midpoint. By melting point is commonly meant the temperature, or range, at which the solid turns liquid. `COc1cc(-c2oc3cc(O[C@@H]4O[C@H](CO)[C@@H](O)[C@H](O)[C@H]4O[C@@H]4O[C@@H](C)[C@H](O)[C@@H](O)[C@H]4O)cc(O)c3c(=O)c2O)ccc1O` [Compound 2, isorhamnetin-7-O-β-D-neohesperidoside] showed a melting point of 225 °C. In addition, the half-inhibitory concentration (IC50) on aldose reductase is 8.73 µM. Further, in series [1], the IC50 is 0.917 µM.
For `COc1ccc(-c2oc3cc(O[C@@H]4O[C@@H](C)[C@H](O)[C@@H](O)[C@H]4O)cc(O)c3c(=O)c2O[C@@H]2O[C@@H](C)[C@H](O)[C@@H](O)[C@H]2O)cc1` [Compound 4, kaempferol-4′-methoxy-3,7-O-α-dirhamnoside], the figures for the IC50 (on aldose reductase; in series [4]; in [1]) were 51.8 µM, 258 µM and 0.474 µM, respectively. The “Cytotoxic activity (in words)” value with liver (HepG2) carcinoma, in the series on breast (MCF7) carcinoma and in the series with colon (HCT116) carcinoma was “potent cytotoxic activities” each time. Besides, the “DPPH radical scavenging IC50” value in series [2] worked out at 9.44 ± 0.13 mg/L. In addition, in series [3], the FRAP value amounted to 1812 ± 33.2 µM. Further, the “α-glucosidase inhibition IC50” value in series [5] was determined as 110.09 ± 4.2 mg/L. Moreover, the “Effect on basal glucose uptake (in words)” value in [6] was “significant insulin-like effects”.
For the compound `O=C1O[C@H]([C@@H](O)CO)C(O)=C1O` [ascorbic acid, reference compound], the “DPPH radical scavenging IC50” value in series [2] was 1.37 ± 0.07 mg/L. The compound also yielded an FRAP value in series [3] of 685.2 ± 1.07 µM.
Turning to `COc1cc(-c2oc3cc(O)cc(O)c3c(=O)c2O[C@@H]2O[C@H](CO)[C@@H](O)[C@H](O)[C@H]2O)ccc1O` [Compound 3, isorhamnetin-3-O-β-D-glucoside], the values for the half-inhibitory concentration (IC50) (on aldose reductase; in series [1]) were 45 µM and 0.721 µM, respectively.
`C[C@@H]1O[C@@H](Oc2cc(O)c3c(=O)c(O[C@@H]4O[C@H](CO)[C@@H](O)[C@H](O)[C@H]4O)c(-c4ccc(O)c(O)c4)oc3c2)[C@H](O)[C@H](O)[C@H]1O` [Compound 1, quercetin-3-O-β-D-glucosyl-7-O-α-rhamnoside]: the IC50 at aldose reductase is 50 µM; in [1], 0.318 µM. For the same compound, the “DPPH radical scavenging IC50” value in series [2] worked out at 5.67 ± 0.09 mg/L. Also, in series [3], the FRAP value worked out at 3106 ± 52.2 µM.
`COc1cc(-c2oc3cc(O[C@@H]4O[C@@H](C)[C@H](O)[C@@H](O)[C@H]4O)cc(O)c3c(=O)c2O[C@@H]2O[C@@H](C)[C@H](OC(C)=O)[C@@H](O)[C@H]2O)ccc1O` [Compound 5, isorhamnetin-3-O-α-(4″- acetylrhamnoside)-7-O-α-rhamnoside] came in with a melting point of 257 °C. At aldose reductase, the “Aldose reductase inhibitory activity (in words)” value is “least aldose reductase inhibitory activity” and the IC50 was 119 µM. Besides, the “Cytotoxic activity (in words)” value with liver (HepG2) carcinoma is recorded as “potent cytotoxic activities”. In addition, the “DPPH radical scavenging IC50” value in series [2] turned out to be 11.45 ± 0.48 mg/L. Moreover, the “Cytotoxic activity (in words)” value in the series on breast (MCF7) carcinoma was “potent cytotoxic activities”. Further, in [3], the FRAP value worked out at 3610 ± 88.3 µM. This compound also gave a 50% inhibitory concentration (IC50) in series [4] of 163 µM. The “α-glucosidase inhibition IC50” value in series [5] is 86.54 ± 3.8 mg/L. Besides, the “Cytotoxic activity (in words)” value with colon (HCT116) carcinoma is “potent cytotoxic activities”. Also, in [6], the “Effect on basal glucose uptake (in words)” value was “significant insulin-like effects”.

Source of the values: PMC7764826, “Flavonol Glycosides: In Vitro Inhibition of DPPIV, Aldose Reductase and Combating Oxidative Stress are Potential Mechanisms for Mediating the Antidiabetic Activity of Cleome droserifolia” (Molecules, 2020).
